Data from ChEMBL document CHEMBL1201862, “PubChem BioAssay data set” (2004).
Calls of active or inactive are those of the source.

Tests used:
P388/ADR = test: cells; type: functional; conditions: Mus musculus
P388 = test: cells; type: functional; conditions: Mus musculus
SN12K1 = test: cells; type: functional; conditions: Homo sapiens
[1] = molecular target: T1, Ubiquitin-conjugating enzyme E2 N (Homo sapiens, UniProt P61088); type: functional;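 note: Dose-response confirmation in a TR-FRET assay detecting UBC13-driven polyubiquitin chain formation, inhibition measured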
T1 sequence (P61088 whole entry): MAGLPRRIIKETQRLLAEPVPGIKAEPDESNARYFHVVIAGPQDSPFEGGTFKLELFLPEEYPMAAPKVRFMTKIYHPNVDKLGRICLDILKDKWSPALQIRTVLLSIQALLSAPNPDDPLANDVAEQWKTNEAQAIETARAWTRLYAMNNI

[2] = molecular target: T2, High affinity choline transporter 1 (Homo sapiens, UniProt Q9GZV3); test: human choline transporter blockers, potency – cell-based, 5-point CRC, membrane potential dye, dose response (AID 504840); type: functional
T2 sequence (Q9GZV3 whole entry): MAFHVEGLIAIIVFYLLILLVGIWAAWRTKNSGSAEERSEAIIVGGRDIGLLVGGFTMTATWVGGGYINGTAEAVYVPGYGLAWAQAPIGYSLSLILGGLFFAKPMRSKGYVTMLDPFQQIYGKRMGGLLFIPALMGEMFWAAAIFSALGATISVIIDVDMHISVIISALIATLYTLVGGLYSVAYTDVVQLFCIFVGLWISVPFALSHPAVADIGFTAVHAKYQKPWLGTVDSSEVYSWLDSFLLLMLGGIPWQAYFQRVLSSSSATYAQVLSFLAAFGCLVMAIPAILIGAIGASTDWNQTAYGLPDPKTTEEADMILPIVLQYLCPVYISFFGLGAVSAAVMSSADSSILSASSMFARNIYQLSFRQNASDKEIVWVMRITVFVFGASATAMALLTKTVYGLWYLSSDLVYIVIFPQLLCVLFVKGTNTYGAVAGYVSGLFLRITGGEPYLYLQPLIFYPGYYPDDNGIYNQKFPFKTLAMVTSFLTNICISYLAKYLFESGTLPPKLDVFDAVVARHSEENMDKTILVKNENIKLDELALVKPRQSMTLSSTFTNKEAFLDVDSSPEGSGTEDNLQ

[3] = molecular target: FAD-linked sulfhydryl oxidase ALR (Homo sapiens, UniProt P55789); test: ALR-catalysed DTT oxidation blockers – biochemical, H2O2 detection, luminescence, cherry-pick, dose response (AID 493248)
Sequence of FAD-linked sulfhydryl oxidase ALR (P55789 whole entry): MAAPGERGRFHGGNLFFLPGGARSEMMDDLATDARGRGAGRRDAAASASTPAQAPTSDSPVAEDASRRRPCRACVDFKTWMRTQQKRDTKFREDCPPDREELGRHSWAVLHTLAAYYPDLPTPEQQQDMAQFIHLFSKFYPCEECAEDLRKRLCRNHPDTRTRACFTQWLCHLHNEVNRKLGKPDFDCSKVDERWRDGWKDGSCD

[4] = molecular target: DNA dC->dU-editing enzyme APOBEC-3A (Homo sapiens, UniProt P31941); test: A3A deaminase inhibition for selectivity – biochemical, dose response (AID 504722); type: functional
Sequence of DNA dC->dU-editing enzyme APOBEC-3A (P31941 whole entry): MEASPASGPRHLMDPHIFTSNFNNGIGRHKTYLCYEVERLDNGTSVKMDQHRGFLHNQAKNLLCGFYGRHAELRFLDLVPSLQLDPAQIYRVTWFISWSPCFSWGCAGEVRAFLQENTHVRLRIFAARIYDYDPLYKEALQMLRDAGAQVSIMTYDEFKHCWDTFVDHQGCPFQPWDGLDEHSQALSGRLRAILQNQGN

[5] = molecular target: DNA dC->dU-editing enzyme APOBEC-3G (Homo sapiens, UniProt Q9HC16); test: Dose Response confirmation of small molecule APOBEC3G DNA Deaminase Inhibitors via a fluorescence-based single-stranded DNA deaminase assay. [Related pubchem assays (depositor defined):AID493012, AID493028]; type: functional
Sequence of DNA dC->dU-editing enzyme APOBEC-3G (Q9HC16 whole entry, the tested form may be a part): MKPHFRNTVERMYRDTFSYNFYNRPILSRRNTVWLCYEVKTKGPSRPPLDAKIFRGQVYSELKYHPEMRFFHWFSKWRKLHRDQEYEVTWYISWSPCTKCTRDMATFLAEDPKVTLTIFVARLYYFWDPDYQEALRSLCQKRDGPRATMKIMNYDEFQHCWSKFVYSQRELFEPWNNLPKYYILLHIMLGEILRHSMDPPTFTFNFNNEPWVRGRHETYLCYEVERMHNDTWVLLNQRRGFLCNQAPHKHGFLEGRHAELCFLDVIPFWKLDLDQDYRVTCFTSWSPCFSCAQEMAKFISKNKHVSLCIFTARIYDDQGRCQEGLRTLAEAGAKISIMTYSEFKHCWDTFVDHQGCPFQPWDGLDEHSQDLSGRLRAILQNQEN

[6] = blockers of HIV-1 ZM109 envelope-driven cell-cell fusion – HeLa effector, CEM target cells, luciferase, cherry-pick, dose response (AID 652058); type: functional, cell-based;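 note: luciferase signal from HIV-1 Env mediated cell-cell fusion of effector and target cells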
[7] = blockers of HIV-1 envelope-mediated cell-cell fusion – cherry-pick, dose response (AID 652057); type: functional, cell-based
[8] = off-target signal loss in HeLa-CEM21 co-culture – HeLa F-luc CTL cells, cherry-picked, counter-screen for HIV-1 Env fusion inhibitor project, dose response (AID 652040); type: functional, cell-based;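 note: potency for signal decrease marking cytotoxic or nonspecific inhibition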
[9] = HIV-1 AD8 envelope cell-cell fusion blockers – cherry-pick, dose response (AID 652062); type: functional, cell-based;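 note: luciferase signal from cell-cell fusion driven by HIV-1 clade B AD8 Env; potency is for inhibitors of fusion seen as a drop in luminescence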
[10] = THP-1 cell cytotoxicity, dose response, cytotoxicity control for non-replicating M. tuberculosis project (AID 489025); type: functional
[11] = Vero E6 cell cytotoxicity, dose response, cytotoxicity control for non-replicating M. tuberculosis project, secondary assay (AID 492998); type: functional, VeroE6; conditions: Vero C1008
cells = type: functional
Genome polyprotein = Genome polyprotein (dengue virus type 2, UniProt P29990); test: flavivirus cap methylation enzyme inhibition – biochemical, confirmation dose response, primary screen (AID 588689); type: functional
Sequence of Genome polyprotein (P29990 2492-3391 limits assumed): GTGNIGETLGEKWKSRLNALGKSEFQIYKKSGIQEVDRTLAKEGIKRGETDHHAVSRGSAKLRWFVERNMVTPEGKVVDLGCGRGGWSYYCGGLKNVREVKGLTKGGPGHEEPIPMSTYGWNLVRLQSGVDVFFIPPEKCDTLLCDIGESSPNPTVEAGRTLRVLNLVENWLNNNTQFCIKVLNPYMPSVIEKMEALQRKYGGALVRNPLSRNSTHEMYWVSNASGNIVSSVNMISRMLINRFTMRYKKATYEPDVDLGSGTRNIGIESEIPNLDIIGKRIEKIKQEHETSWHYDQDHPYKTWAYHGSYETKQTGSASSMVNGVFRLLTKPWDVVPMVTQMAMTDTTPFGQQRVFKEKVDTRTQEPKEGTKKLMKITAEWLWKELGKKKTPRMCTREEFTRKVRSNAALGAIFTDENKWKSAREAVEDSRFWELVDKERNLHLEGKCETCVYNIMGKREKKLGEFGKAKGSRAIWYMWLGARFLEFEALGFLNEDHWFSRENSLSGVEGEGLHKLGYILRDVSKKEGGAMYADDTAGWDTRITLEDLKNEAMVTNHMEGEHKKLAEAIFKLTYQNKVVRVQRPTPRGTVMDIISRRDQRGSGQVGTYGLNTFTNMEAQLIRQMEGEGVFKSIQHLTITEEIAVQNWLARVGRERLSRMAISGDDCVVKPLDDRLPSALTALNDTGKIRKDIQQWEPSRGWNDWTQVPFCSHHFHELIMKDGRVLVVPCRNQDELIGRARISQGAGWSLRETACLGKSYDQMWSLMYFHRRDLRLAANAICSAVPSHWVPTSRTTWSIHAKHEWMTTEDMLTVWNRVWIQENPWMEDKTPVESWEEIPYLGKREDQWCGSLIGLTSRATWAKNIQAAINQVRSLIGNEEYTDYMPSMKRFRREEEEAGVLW

Q: What does the source list for `O=NN(CCCl)C(=O)NC1CCC(=O)NC1=O` (stereo unspecified)?
A: GI50 (P388/ADR): 23.4 µM (inactive); GI50 (P388): 17.8 µM (inactive); GI50 (SN12K1): 107 µM (inactive)

Q: With `O=C(C(=O)N1CCOCC1)c1cn(Cc2ccccc2Cl)c2ccccc12` as the compound, how does the IC50 [1] read?
A: > 20 µM (inactive)

Q: Which IC50 [2] does the source give for `COc1ccc(-c2csc(Cc3nnc4n3CCCCC4)n2)cc1` here?
A: 9.12 µM (active)

Q: Which AC50 [3] does the source give for `Nc1ccc(-c2nc3cc(N)ccc3s2)cc1` here?
A: 1.43 µM (active)

Q: Which AC50 [3] does the source give for `Clc1nnc(N2CCCCC2)c2ccccc12` here?
A: 17.1 µM (active)

Q: With `O=C(NCC1CCCCC1)C1(CC2CC(c3ccc(Cl)cc3)=NO2)CCNCC1` (stereo unspecified) as the compound, how does the IC50 [1] read?
A: > 20 µM (inactive)

Q: For `COc1ccccc1CCNC(=O)c1ccc(OC)c(OC2CCN(C(C)C)CC2)c1`, which IC50 [2] is on record?
A: 13.5 µM (active)

Q: Which AC50 [3] does the source give for `CC(=O)NCCCc1c[nH]c2ccc(Cl)cc12` here?
A: 13.5 µM (active)

Q: With `O=C(CSc1nc2ccsc2c(=O)n1Cc1ccccc1)NCC1CCCO1` (stereo unspecified) as the compound, how does the IC50 [1] read?
A: > 20 µM (inactive)

Q: Which IC50 [4] does the source give for `CCn1c(CSc2nc3ccccc3[nH]2)n[nH]c1=S` here?
A: > 100 µM (inactive)

Q: And the IC50 [5]?
A: 5.44 µM (active)

Q: For `CN(C)S(=O)(=O)c1ccc(N2CCCC2)c(C(=O)NCCc2ccc(F)cc2)c1`, which AC50 [6] is on record?
A: 5.76 µM (active)

Q: And the AC50 [7]?
A: 5.95 µM (active)

Q: And the AC50 [8]?
A: 9.35 µM (active)

Q: What about the AC50 [9] of the same compound?
A: 6.5 µM (active)

Q: Which CC50 [10] does the source give for `CN(C)CCCNc1nc2sc3c(c2c(=O)n1CCc1ccccc1)CCCCC3` here?
A: 19.5 µM (active)

Q: What about the CC50 [11] of the same compound?
A: 14.4 µM (active)

Q: What about the IC50 [1] of the same compound?
A: > 20 µM (inactive)

Q: And the IC50 (cells)?
A: 23.3 µM (active)

Q: With `CCN(CC)S(=O)(=O)c1ccc(NC2c3ccccc3C(=O)N2Cc2ccc3c(c2)OCO3)cc1` (stereo unspecified) as the compound, how does the AC50 [6] read?
A: 7.39 µM (active)

Q: And the AC50 [7]?
A: 1.33 µM (active)

Q: What about the AC50 [8] of the same compound?
A: 3.71 µM (active)

Q: For `CCOc1ccc(/C=C2\SC(=S)N(NS(=O)(=O)c3ccccc3)C2=O)cc1OC`, which IC50 (Genome polyprotein) is on record?
A: 71.2 µM (active)

Q: What about the IC50 [2] of the same compound?
A: 5.37 µM (active)
